# Assay results: US7632838B2, “11-beta HSD1 inhibitors” (Wyeth, priority 2006, dated 2009)
# Tested on: not given
# Test: not given
# Conditions: not given
row,SMILES,melting point
1,"O=C(N1CCC(Oc2c(Cl)cccc2Cl)CC1)C12CC3CC(CC(C3)C1)C2 [Example 18D, Adamantan-1-yl-[4-(2,6-dichloro-phenoxy)-piperidin-1-yl]-methanone]",191 to 199 °C

# Molecular target: T1, human 11 b-HSD1 (Homo sapiens, UniProt P28845)
# T1 construct: expressed in transfected cells
# Test: cell-based assay, stable CHO cell line expressing human 11 b-HSD1 (cortisone to cortisol, DiscoverX HitHunter Cortisol Assay)
# Conditions: 11βHSD1 inhibition; stated as 'less than about'; read-out: inhibition constant IC50
# Experimental: Compounds described herein can be tested in a cell-based assay using a stable CHO cell line expressing human 11 b-HSD1. Cells are plated at 20,000 cells/well in 96 well plates and incubated overnight (12-16 hrs) at 37° C./5% CO2. Cells are treated with different concentration of compound in 90 microliter serum-free media and incubated for 30 minutes at 37° C./5% CO2. 10 ul of 5 micromolar cortisone (final concentration 500 nM) is then added to the cells and the plate is incubated at 37° C./5% CO2 for 120 minutes. 15 microliter of media is withdrawn and amount of cortisol in the media is measured using the DiscoverX HitHunter Cortisol Assay (DiscoverX corp, CA).
# T1 sequence (P28845 whole entry): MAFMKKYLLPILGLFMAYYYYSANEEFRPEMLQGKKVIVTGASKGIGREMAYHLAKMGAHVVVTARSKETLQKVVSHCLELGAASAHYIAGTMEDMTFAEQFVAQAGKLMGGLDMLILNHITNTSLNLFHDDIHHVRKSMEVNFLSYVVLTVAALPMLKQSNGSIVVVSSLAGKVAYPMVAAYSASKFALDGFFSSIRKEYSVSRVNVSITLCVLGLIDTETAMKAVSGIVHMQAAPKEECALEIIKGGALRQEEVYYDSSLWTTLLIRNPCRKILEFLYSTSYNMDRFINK
row,SMILES,IC50
1,"CC(C)(C)c1ccc(S(=O)(=O)N2CCN(c3ncccc3Cl)CC2)cc1 [Example 2A, 1-[(4-tert-butylphenyl)sulfonyl]-4-(3-chloropyridin-2-yl)piperazine]",< 10 µM
2,"O=S(=O)(c1ccc2ccccc2c1)N1CCN(c2ncccc2Cl)CC1 [Example 2B, 1-(3-chloropyridin-2-yl)-4-(2-naphthylsulfonyl)piperazine]",< 10 µM
3,"O=S(=O)(c1ccccc1Cl)N1CCN(c2ncccc2Cl)CC1 [Example 2D, 1-[(2-chlorophenyl)sulfonyl]-4-(3-chloropyridin-2-yl)piperazine]",< 10 µM
4,"O=S(=O)(c1ccc(Cl)cc1)N1CCN(c2ncccc2Cl)CC1 [Example 2E, 1-[(4-chlorophenyl)sulfonyl]-4-(3-chloropyridin-2-yl)piperazine]",< 10 µM
5,"Cc1ccc(S(=O)(=O)N2CCN(c3ncccc3Cl)CC2)cc1 [Example 2F, 1-(3-chloropyridin-2-yl)-4-[(4-methylphenyl)sulfonyl]piperazine]",< 10 µM
6,"COc1ccc(S(=O)(=O)N2CCN(c3ncccc3Cl)CC2)cc1 [Example 2G, 1-(3-chloropyridin-2-yl)-4-[(4-methoxyphenyl)sulfonyl]piperazine]",< 10 µM
7,"O=S(=O)(c1ccc(-c2ccccc2)cc1)N1CCN(c2ncccc2Cl)CC1 [Example 2H, 1-(biphenyl-4-ylsulfonyl)-4-(3-chloropyridin-2-yl)piperazine]",< 10 µM
8,"O=S(=O)(Cc1ccccc1)N1CCN(c2ncccc2Cl)CC1 [Example 2I, 1-(benzylsulfonyl)-4-(3-chloropyridin-2-yl)piperazine]",< 10 µM
9,"O=S(=O)(c1ccc(C(F)(F)F)cc1Br)N1CCN(c2ncccc2Cl)CC1 [Example 2J, 1-{[2-bromo-4-(trifluoromethyl)phenyl]sulfonyl}-4-(3-chloropyridin-2-yl)piperazine]",< 10 µM
10,"C[C@H]1CN(C(=O)OCc2ccccc2)C[C@H](C)N1S(=O)(=O)c1ccc(C(C)(C)C)cc1 [Example 5, Benzyl (3S,5S)-4-[(4-tert-butylphenyl)sulfonyl]-3,5-dimethylpiperazine-1-carboxylate]",< 10 µM
11,"C[C@H]1CN(c2ncccc2Cl)C[C@H](C)N1S(=O)(=O)c1ccc(C(C)(C)C)cc1 [Example 6, (2S,6S)-1-[(4-tert-butylphenyl)sulfonyl]-4-(3-chloropyridin-2-yl)-2,6-dimethylpiperazine]",< 10 µM
12,"O=S(=O)(c1ccc2ccccc2c1)N1CCN(c2ccc(F)cc2C(F)(F)F)CC1 [Example 9F, 1-[4-fluoro-2-(trifluoromethyl)phenyl]-4-(2-naphthylsulfonyl)piperazine]",< 10 µM
13,"O=S(=O)(c1ccc(Cl)c(Cl)c1)N1CCN(c2ncccc2F)CC1 [Example 13A, 1-[(3,4-dichlorophenyl)sulfonyl]-4-(3-fluoropyridin-2-yl)piperazine]",< 10 µM
14,"N#Cc1cccnc1N1CCN(S(=O)(=O)c2ccc(Cl)c(Cl)c2)CC1 [Example 13B, 2-{4-[(3,4-dichlorophenyl)sulfonyl]piperazin-1-yl}nicotinonitrile]",< 10 µM
15,"O=[N+]([O-])c1cccnc1N1CCN(S(=O)(=O)c2ccc(Cl)c(Cl)c2)CC1 [Example 13C, 1-[(3,4-dichlorophenyl)sulfonyl]-4-(3-nitropyridin-2-yl)piperazine]",< 10 µM
